# Laboratory results taken from patent publication US20230248665A1, “COMPOSITION COMPRISING DIMETHYLCHALCONE DERIVATIVE FOR PREVENTION OR TREATMENT OF METABOLIC DISEASE” (SEOUL NATIONAL UNIVERSITY R & DB FOUNDATION, priority 2020, published 2023).
# Assays:
# Assay type in all cases: cell-based
# [1] = tested on: rat aortic smooth muscle cells; test: PDGF-induced migration of vascular smooth muscle cells; conditions: 1 µM with 10 ng/mL PDGF; FIG. 4
# Protocol: Proliferation and migration of vascular smooth muscle cells are known to be essential steps in the progression of vascular diseases such as restenosis and arteriosclerosis. Therefore, in order to confirm the effect of the DMC derivatives of Example 1 on the migration of rat aortic smooth muscle cells, smooth muscle cells were treated with 10 ng/mL platelet-derived growth factor (PDGF) and 1 µM DMC derivative and cultured. Then, the degree of cell migration was measured.
# [2] = tested on: vascular endothelial cells (HUVECs) and THP-1 (human monocyte) immune cells; test: Binding of THP-1 immune cells to TNFα-treated vascular endothelial cells (HUVECs); conditions: 10 µM with 10 ng/mL TNFα, 24 hours, then THP-1 for 1 hour; FIG. 5
# Protocol: In the early stages of progression of vascular diseases such as arteriosclerosis, adhesion materials are expressed in vascular endothelial cells due to various environmental factors, thereby increasing the binding of immune cells. Therefore, in order to check whether the DMC derivatives of Example 1 affect the binding between vascular endothelial cells and immune cells, vascular endothelial cells (HUVECs) were treated with 10 ng/mL TNFα and 10 µM DMC derivative and cultured for 24 hours. Then, THP-1 (human monocyte) immune cells labeled with a fluorescent protein were added to the culture solution, and the cells were additionally cultured for 1 hour. After the culture was completed, unbound immune cells were removed using a phosphate buffer solution, and then the degree of binding of immune cells to vascular endothelial cells was determined by measuring the intensity of fluorescence.
# [3] = tested on: human kidney proximal tubule epithelial cell (HK-2) cell line; test: Antioxidant effect, intracellular reactive oxygen species (DCF-DA) in HK-2 kidney cells after H2O2; conditions: 1 µM for 18 hours, then 500 µM H2O2 for 6 hours, FIG. 6
# Protocol: First, the antioxidant effect was checked using kidney cells. More specifically, a human kidney proximal tubule epithelial cell (HK-2) cell line was treated with 1 µM DMC derivative and cultured for 18 hours. Then, 500 µM H2O2 was added to the culture medium and the culture medium was incubated for 6 hours. Thereafter, the amount of intracellular reactive oxygen species (iROS) was measured using dichlorohydro-fluorescein diacetate (DCF-DA).
# AMPK = AMPK activity, western blotting of phosphorylated AMPK in C2C12 myotubes; conditions: 10 µM, 24 hours, FIG. 2
# Text: AMP-activated protein kinase (AMPK) is a member of serine/threonine kinases, and is an enzyme known as an energy sensor which senses the intracellular energy state. Moreover, the activation of AMPK is known to show the effect of increasing glucose transport and promoting fatty acid oxidation in skeletal muscle, and to […] the synthesis of cholesterol and triglycerides, decrease lipogenesis, and increase fatty acid oxidation, and ketogenesis, and the like in the liver. Further, the activation of AMPK is known to reduce adipogenesis in adipose tissue and increase insulin secretion in pancreatic beta cells, thereby being able to be applied to the treatment of various metabolic diseases. Therefore, western blotting was performed in order to confirm the effect of the DMC derivatives of Example 1 on AMPK activity. More specifically, the C2C12 myoblasts were primarily cultured in DMEM supplemented with 10% fetal bovine serum, and then cultured in DMEM supplemented with 2% horse serum for 5 days to differentiate into myotubes. Then, the differentiated myotubes were treated with 10 µM DMC derivative and cultured for 24 hours, and then cells were collected, and disrupted using an ultrasonic disperser to obtain proteins. Next, western blotting was performed using a pAMPK antibody (Cell Signaling Technology) and an AMPK antibody (Cell Signaling Technology) to measure the amount of phosphorylated AMPK. 1 mM AICAR was used as a positive control, and 20 µg of protein was used for each sample in western blotting.
SMILES,migration of vascular smooth muscle cells [1],binding of immune cells to vascular endothelial cells (fluorescence) [2],amount of intracellular reactive oxygen species (ROS) [3],activity of AMPK (phosphorylated AMPK) (AMPK)
"COc1c(C)c(O)c(C)c(O)c1C(=O)/C=C/c1ccc(F)cc1 [Chemical Formula 2, 1-(2′,4′-dihydroxy-6′-methoxy-3′,5′-dimethylphenyl)-3-(4-fluorophenyl)-2-propen-l-one]","similarly or more effectively suppressed cell migration by PDGF than AICAR and Rosi, which were used as positive controls, and DMC",similarly or more effectively suppressed the binding of immune cells than Rosi,effectively reduced ROS,
"COc1c(C)c(O)c(C)c(O)c1C(=O)/C=C/c1ccc(F)c(F)c1 [Chemical Formula 6, 1-(2′,4′-dihydroxy-6′-methoxy-3′,5′-dimethylphenyl)-3-(3,4-difluorophenyl)-2-propen-1-one]",,similarly or more effectively suppressed the binding of immune cells than Rosi,effectively reduced ROS,increased the activity of AMPK similarly to or more effectively than the positive controls
"COc1c(C)c(O)c(C)c(O)c1C(=O)/C=C/c1ccc(N(C)C)cc1 [Chemical Formula 7, 1-(2,4′-dihydroxy-6′-methoxy-3′,5′-dimethylphenyl)-3-(4-(N,N-dimethylamino)phenyl)-2-propen-1-one]",,similarly or more effectively suppressed the binding of immune cells than Rosi,effectively reduced ROS,
"COc1c(C)c(O)c(C)c(O)c1C(=O)/C=C/c1ccc(Cl)cc1 [Chemical Formula 8, 1-(2′,4′-dihydroxy-6′-methoxy-3′,5′-dimethylphenyl)-3-(4-chlorophenyl)-2-propen-1-one]",,similarly or more effectively suppressed the binding of immune cells than Rosi,effectively reduced ROS,increased the activity of AMPK similarly to or more effectively than the positive controls
"COc1c(C)c(O)c(C)c(O)c1C(=O)/C=C/c1ccc(C(F)(F)F)cc1 [Chemical Formula 9, 1-(2′,4′-dihydroxy-6′-methoxy-3′,5′-dimethylphenyl)-3-(4-(trifluoromethyl)phenyl)-2-propen-1-one]",,similarly or more effectively suppressed the binding of immune cells than Rosi,effectively reduced ROS,increased the activity of AMPK similarly to or more effectively than the positive controls
"COc1ccc(OC)c(/C=C/C(=O)c2c(O)c(C)c(O)c(C)c2OC)c1 [Chemical Formula 10, 1-(2′,4′-dihydroxy-6′-methoxy-3′,5′-dimethylphenyl)-3-(2,5-dimethoxyphenyl)-2-propen-1-one]",,similarly or more effectively suppressed the binding of immune cells than Rosi,effectively reduced ROS,
"COCOc1c(C)c(O)c(C(=O)/C=C/c2ccc(F)c(F)c2)c(OC)c1C [Chemical Formula 11, 1-(2′-hydroxy-4′-(methoxymethoxy)-6′-methoxy-3′,5′-dimethylphenyl)-3-(3,4-difluorophenyl)-2-propen-1-one]",,similarly or more effectively suppressed the binding of immune cells than Rosi,effectively reduced ROS,increased the activity of AMPK similarly to or more effectively than the positive controls
"COCOc1c(C)c(O)c(C(=O)/C=C/c2ccc(Cl)cc2)c(OC)c1C [Chemical Formula 12, 1-(2′-hydroxy-4′-(methoxymethoxy)-6′-methoxy-3′,5′-dimethyphenyl)-3-(4-chlorophenyl)-2-propen-1-one]",,similarly or more effectively suppressed the binding of immune cells than Rosi,effectively reduced ROS,increased the activity of AMPK similarly to or more effectively than the positive controls
"COCOc1c(C)c(O)c(C(=O)/C=C/c2ccc(SC)cc2)c(OC)c1C [Chemical Formula 13, 1-(2′-hydroxy-4′-(methoxymethoxy)-6′-methoxy-3′,5′-dimethyphenyl)-3-(4-methylthiophenyl)-2-propen-1-one]","similarly or more effectively suppressed cell migration by PDGF than AICAR and Rosi, which were used as positive controls, and DMC",similarly or more effectively suppressed the binding of immune cells than Rosi,effectively reduced ROS,
"COCOc1c(C)c(O)c(C(=O)/C=C/c2ccc(C(F)(F)F)cc2)c(OC)c1C [Chemical Formula 14, 1-(2′-hydroxy-4′-(methoxymethoxy)-6′-methoxy-3′,5′-dimethylphenyl)-3-(4-(trifluoromethyl)phenyl)-2-propen-1-one]",,similarly or more effectively suppressed the binding of immune cells than Rosi,effectively reduced ROS,
"COCOc1ccc(/C=C/C(=O)c2c(OC)c(C)c(OC)c(C)c2OC)cc1 [Chemical Formula 20, 1-(3′,5′-dimethyl-2′,4′,6′-trimethoxyphenyl)-3-(4-methoxymethoxyphenyl)-2-propen-1-one]","similarly or more effectively suppressed cell migration by PDGF than AICAR and Rosi, which were used as positive controls, and DMC",,effectively reduced ROS,increased the activity of AMPK similarly to or more effectively than the positive controls
"COc1c(C)c(O)c(C)c(O)c1C(=O)/C=C/c1ccccc1F [Chemical Formula 31, 1-(2′,4′-dihydroxy-6′-methoxy-3′,5′-dimethylphenyl)-3-(2-fluorophenyl)-2-propen-1-one]","similarly or more effectively suppressed cell migration by PDGF than AICAR and Rosi, which were used as positive controls, and DMC",,effectively reduced ROS,increased the activity of AMPK similarly to or more effectively than the positive controls
"COCOc1c(C)c(O)c(C(=O)/C=C/c2cccc(F)c2)c(OC)c1C [Chemical Formula 35, 1-(2′-hydroxy-4′-(methoxymethoxy)-6′-methoxy-3′,5′-dimethylphenyl)-3-(3-fluorophenyl)-2-propen-1-one]",,similarly or more effectively suppressed the binding of immune cells than Rosi,effectively reduced ROS,
"COCOc1c(C)c(O)c(C(=O)/C=C/c2ccccc2Cl)c(OC)c1C [Chemical Formula 38, 1-(2′-hydroxy-4′-(methoxymethoxy)-6′-methoxy-3′,5′-dimethylphenyl)-3-(2-chlorophenyl)-2-propen-1-one]","similarly or more effectively suppressed cell migration by PDGF than AICAR and Rosi, which were used as positive controls, and DMC",similarly or more effectively suppressed the binding of immune cells than Rosi,,
"COc1c(C)c(O)c(C)c(O)c1C(=O)/C=C/c1ccc(C)cc1C [Chemical Formula 39, 1-(2′,4′-dihydroxy-6′-methoxy-3′,5′-dimethylphenyl)-3-(2,4-dimethylphenyl)-2-propen-1-one]","similarly or more effectively suppressed cell migration by PDGF than AICAR and Rosi, which were used as positive controls, and DMC",similarly or more effectively suppressed the binding of immune cells than Rosi,,increased the activity of AMPK similarly to or more effectively than the positive controls
